Measurements as given in ChEMBL document CHEMBL3880421, “Indazole compounds and pharmaceutical compositions for inhibiting protein kinases, and methods for their use” (2003).

What was measured:
[1] = Antiproliferative activity against VEGF-stimulated HUVEC cells assessed as reduction in cell viability at 0.5 nM preincubated for 1 hr followed by addition of VEGF measured after 72 hrs by MTT assay; format: functional; conditions: Homo sapiens
[2] = Antiproliferative activity against VEGF-stimulated HUVEC cells assessed as reduction in cell viability at 2 nM preincubated for 1 hr followed by addition of VEGF measured after 72 hrs by MTT assay; format: functional; conditions: Homo sapiens

Compound	inhibition at 0.0005 µM [1] [%]	inhibition at 0.002 µM [2] [%]
O=C(NCc1cccnc1)c1ccccc1Nc1ccc2c(/C=C/c3ccccn3)n[nH]c2c1	30	78
CCCCCCCNC(=O)c1ccccc1Nc1ccc2c(/C=C/c3ccccn3)n[nH]c2c1	9	34
O=C(NCCCn1ccnc1)c1ccccc1Nc1ccc2c(/C=C/c3ccccn3)n[nH]c2c1	23	23
NC(=O)c1ccccc1Nc1ccc2c(/C=C/c3ccccn3)n[nH]c2c1	9	30
CCCC(CCC)NC(=O)c1ccccc1Nc1ccc2c(/C=C/c3ccccn3)n[nH]c2c1	1	52
O=C(Nc1ccon1)c1ccccc1Nc1ccc2c(/C=C/c3ccccn3)n[nH]c2c1	6	16
O=C(NCC(c1ccccc1)c1ccccc1)c1ccccc1Nc1ccc2c(/C=C/c3ccccn3)n[nH]c2c1	11	15
CC1(C)CC(NC(=O)c2ccccc2Nc2ccc3c(/C=C/c4ccccn4)n[nH]c3c2)CC(C)(C)N1	35	10
O=C(O)CNC(=O)c1ccccc1Nc1ccc2c(/C=C/c3ccccn3)n[nH]c2c1	8	23
CC(C)CCNC(=O)c1ccccc1Nc1ccc2c(/C=C/c3ccccn3)n[nH]c2c1	14 to 47	47 to 55
O=C(Nc1nncs1)c1ccccc1Nc1ccc2c(/C=C/c3ccccn3)n[nH]c2c1	44	28
O=C(NC1CCN(Cc2ccccc2)CC1)c1ccccc1Nc1ccc2c(/C=C/c3ccccn3)n[nH]c2c1	44	19
CCC(C)CNC(=O)c1ccccc1Nc1ccc2c(/C=C/c3ccccn3)n[nH]c2c1 (stereo unspecified)	24	84
O=C(NCCc1ccncc1)c1ccccc1Nc1ccc2c(/C=C/c3ccccn3)n[nH]c2c1	18	22
CC(CNC(=O)c1ccccc1Nc1ccc2c(/C=C/c3ccccn3)n[nH]c2c1)N(C)C (stereo unspecified)	-9	1
O=C(Nc1nccs1)c1ccccc1Nc1ccc2c(/C=C/c3ccccn3)n[nH]c2c1	33	94
N#CCNC(=O)c1ccccc1Nc1ccc2c(/C=C/c3ccccn3)n[nH]c2c1	18	40
CC(C)C(C)NC(=O)c1ccccc1Nc1ccc2c(/C=C/c3ccccn3)n[nH]c2c1 (stereo unspecified)	19	55
CC(O)CNC(=O)c1ccccc1Nc1ccc2c(/C=C/c3ccccn3)n[nH]c2c1 (stereo unspecified)	38	2
COC[C@H]1CCCN1NC(=O)c1ccccc1Nc1ccc2c(/C=C/c3ccccn3)n[nH]c2c1	18	11
CC(CNC(=O)c1ccccc1Nc1ccc2c(/C=C/c3ccccn3)n[nH]c2c1)c1ccccc1 (stereo unspecified)	26	83
O=C(NCS(=O)(=O)O)c1ccccc1Nc1ccc2c(/C=C/c3ccccn3)n[nH]c2c1	2	-3
CSCCCNC(=O)c1ccccc1Nc1ccc2c(/C=C/c3ccccn3)n[nH]c2c1	44	100
CCN(CCNC(=O)c1ccccc1Nc1ccc2c(/C=C/c3ccccn3)n[nH]c2c1)c1cccc(C)c1	17	1
CC(C)C(CO)NC(=O)c1ccccc1Nc1ccc2c(/C=C/c3ccccn3)n[nH]c2c1 (stereo unspecified)	21	-5

Compound	inhibition at 0.0005 µM [1] [%]	inhibition at 0.002 µM [2] [%]
Cc1cnc(NC(=O)c2ccccc2Nc2ccc3c(/C=C/c4ccccn4)n[nH]c3c2)s1	20	92
Cc1cc(NC(=O)c2ccccc2Nc2ccc3c(/C=C/c4ccccn4)n[nH]c3c2)no1	28	14
O=C(NCCCN1CCOCC1)c1ccccc1Nc1ccc2c(/C=C/c3ccccn3)n[nH]c2c1	5	14
CN(C)c1ccc(CNC(=O)c2ccccc2Nc2ccc3c(/C=C/c4ccccn4)n[nH]c3c2)cc1	32	24
CC(C)(N)CNC(=O)c1ccccc1Nc1ccc2c(/C=C/c3ccccn3)n[nH]c2c1	31	3
O=C(NNC1=NCCN1)c1ccccc1Nc1ccc2c(/C=C/c3ccccn3)n[nH]c2c1	34	69
O=C(NCc1cccc(F)c1)c1ccccc1Nc1ccc2c(/C=C/c3ccccn3)n[nH]c2c1	81	95
Nc1ccc(CNC(=O)c2ccccc2Nc2ccc3c(/C=C/c4ccccn4)n[nH]c3c2)cc1	45	88
CCCC(CO)NC(=O)c1ccccc1Nc1ccc2c(/C=C/c3ccccn3)n[nH]c2c1 (stereo unspecified)	44	40
CCN1CCCC1CNC(=O)c1ccccc1Nc1ccc2c(/C=C/c3ccccn3)n[nH]c2c1 (stereo unspecified)	18	5
CC(C)(C)OC(=O)NCCNC(=O)c1ccccc1Nc1ccc2c(/C=C/c3ccccn3)n[nH]c2c1	78	60
O=C(NCCO)c1ccccc1Nc1ccc2c(/C=C/c3ccccn3)n[nH]c2c1	18	24
Cn1cccc1C(=O)NNC(=O)c1ccccc1Nc1ccc2c(/C=C/c3ccccn3)n[nH]c2c1	68	49
C[C@H](CNC(=O)c1ccccc1Sc1ccc2c(/C=C/c3ccccn3)n[nH]c2c1)c1ccccc1	-9	–
COc1ccccc1NC(=O)c1ccccc1Sc1ccc2c(/C=C/c3ccccn3)n[nH]c2c1	-8	–
CC1(C)C2CC[C@H](CNC(=O)c3ccccc3Sc3ccc4c(/C=C/c5ccccn5)n[nH]c4c3)C1C2 (stereo partly specified)	-19	–
Cc1ccc(F)c(NC(=O)c2ccccc2Sc2ccc3c(/C=C/c4ccccn4)n[nH]c3c2)c1	-1	–
O=C(Nc1ccccc1Cl)c1ccccc1Sc1ccc2c(/C=C/c3ccccn3)n[nH]c2c1	-2	–
C[C@H](NC(=O)c1ccccc1Sc1ccc2c(/C=C/c3ccccn3)n[nH]c2c1)c1ccc2ccccc2c1	-8	–
O=C(NCc1ccccc1F)c1ccccc1Nc1ccc2c(/C=C/c3ccccn3)n[nH]c2c1	75	–
O=C(N[C@H]1CC2CCC1C2)c1ccccc1Sc1ccc2c(/C=C/c3ccccn3)n[nH]c2c1 (stereo partly specified)	-9	–
O=C(Nc1ccc(F)c(F)c1)c1ccccc1Sc1ccc2c(/C=C/c3ccccn3)n[nH]c2c1	-38	–
CC(C)c1cccc(NC(=O)c2ccccc2Sc2ccc3c(/C=C/c4ccccn4)n[nH]c3c2)c1	8	–
Cc1c(Cl)cccc1NC(=O)c1ccccc1Sc1ccc2c(/C=C/c3ccccn3)n[nH]c2c1	9	–
O=C(Nc1ccc2c(c1)CCC2)c1ccccc1Sc1ccc2c(/C=C/c3ccccn3)n[nH]c2c1	-6	–

Compound	inhibition at 0.0005 µM [1] [%]	inhibition at 0.002 µM [2] [%]
O=C(Nc1ccc(O)cc1O)c1ccccc1Sc1ccc2c(/C=C/c3ccccn3)n[nH]c2c1	20	–
O=C(N[C@H](CO)c1ccccc1)c1ccccc1Sc1ccc2c(/C=C/c3ccccn3)n[nH]c2c1	18	–
O=C(NCC12CC3CC(CC(C3)C1)C2)c1ccccc1Sc1ccc2c(/C=C/c3ccccn3)n[nH]c2c1	1	–
O=C(N[C@@H]1c2ccccc2C[C@@H]1O)c1ccccc1Sc1ccc2c(/C=C/c3ccccn3)n[nH]c2c1	-6	–
C[C@H](NC(=O)c1ccccc1Sc1ccc2c(/C=C/c3ccccn3)n[nH]c2c1)c1cccc2ccccc12	-20	–
O=C(Nc1nccc2cccnc12)c1ccccc1Sc1ccc2c(/C=C/c3ccccn3)n[nH]c2c1	-3	–
COc1ccc(NC(=O)c2ccccc2Sc2ccc3c(/C=C/c4ccccn4)n[nH]c3c2)cc1	4	–
COc1ccc(NC(=O)c2ccccc2Sc2ccc3c(/C=C/c4ccccn4)n[nH]c3c2)cc1O	-19	–
O=C(NC12CC3CC(CC(C3)C1)C2)c1ccccc1Sc1ccc2c(/C=C/c3ccccn3)n[nH]c2c1	3	–
O=C(N[C@@H]1CN2CC[C@H]1C2)c1ccccc1Nc1ccc2c(/C=C/c3ccccn3)n[nH]c2c1	12	–
CNC(=O)c1cccc(NC(=O)c2ccccc2Sc2ccc3c(/C=C/c4ccccn4)n[nH]c3c2)c1	-11	–
COC(=O)c1ccc(NC(=O)c2ccccc2Sc2ccc3c(/C=C/c4ccccn4)n[nH]c3c2)c(O)c1	-22	–
Cc1ccccc1NC(=O)c1ccccc1Sc1ccc2c(/C=C/c3ccccn3)n[nH]c2c1	5	–
CC(C)OCCNC(=O)c1ccccc1Nc1ccc2c(/C=C/c3ccccn3)n[nH]c2c1	51	–
O=C(Nc1cnc2ccccc2c1)c1ccccc1Sc1ccc2c(/C=C/c3ccccn3)n[nH]c2c1	-8	–
COc1cccc(OC)c1NC(=O)c1ccccc1Sc1ccc2c(/C=C/c3ccccn3)n[nH]c2c1	-57	–
CC(C)Oc1ccc(NC(=O)c2ccccc2Sc2ccc3c(/C=C/c4ccccn4)n[nH]c3c2)cc1	-9	–
O=C(Nc1cccc2ccc(O)cc12)c1ccccc1Sc1ccc2c(/C=C/c3ccccn3)n[nH]c2c1	-6	–
Cc1ccc(NC(=O)c2ccccc2Sc2ccc3c(/C=C/c4ccccn4)n[nH]c3c2)cc1	-15	–
Cc1cc(NC(=O)c2ccccc2Sc2ccc3c(/C=C/c4ccccn4)n[nH]c3c2)ccc1Cl	-43	–
O=C(N[C@H](CO)[C@@H](O)c1ccccc1)c1ccccc1Sc1ccc2c(/C=C/c3ccccn3)n[nH]c2c1	10	–
CCONC(=O)c1ccccc1Nc1ccc2c(/C=C/c3ccccn3)n[nH]c2c1	72	–
COc1ccccc1CNC(=O)c1ccccc1Nc1ccc2c(/C=C/c3ccccn3)n[nH]c2c1	36	–
